According to US4646832A, “Determining residual oil saturation by injecting salts of carbonic and halocarboxylic acids” (Shell Oil Company, priority 1985, dated 1987):
Where two headings read alike, the source gives them in different places.

How the values were obtained:
[1] = 50 psig, 0.05 mol/liter acid salt, 0.5 mol/liter NaCl
Description: In each case, the solution was maintained at a pressure of 50 psig during each test. The pH of the solution was maintained substantially constant by adding portions of 0.1 mol/liter sodium bicarbonate solution to the system while the hydrolysis was proceeding. Each acid generator solution consisted of water containing 0.5 mol/liter sodium chloride and 0.05 mols/liter of the indicated halocarboxylic acid salt.
*^1 This is the time, in hours, required for the acid generator to be
onehalf reacted to form CO2 or acid.

[2] = Best estimate of applicable temperature range of CO2 generators (Table I); assay type: physicochemical; conditions: best estimate of the applicable temperature range as CO2 generator

## CC(Cl)CC(=O)O (stereo not drawn) [3-Chlorobutyric acid]
[1]; Test 22, 125 °F, pH 6.2
  Half Life, t1/2: 13.2 h
[1]; Test 23, 99 °F, pH 6.2
  Half Life, t1/2: 29.2 h
[1]; Test 24, 102 °F, pH 6.2
  Half Life, t1/2: 80.0 h

## O=C(O)c1ccccc1Cl [O--Chlorobenzoic acid]
[2]
  Temperature Range: > 300 °F.
[1]; Test 12, 212 °F, pH 7.0
  Half Life, t1/2: 3,113 hours
[1]; Test 13, 212 °F, pH 6.2
  Half Life, t1/2: 2,543 hours
[1]; Test 14, 204 °F, pH 8.0
  Half Life, t1/2: 3,906 hours
[1]; Test 15, 251 °F, pH 8.0
  Half Life, t1/2: 2,335 hours

## O=C(O)CCl [Monochloroacetic acid]
[1]; Test 8, 182 °F, pH 7.0
  Half Life, t1/2: 127.9 h
[1]; Test 9, 198 °F, pH 7.0
  Half Life, t1/2: 49.4 h

## O=C(O)CCCl [3-Chloropropionic acid]
[1]; Test 1, 138 °F, pH 8.0
  Half Life, t1/2: 43.5 h
[1]; Test 2, 140 °F, pH 7.0
  Half Life, t1/2: 16.1 h
[1]; Test 3, 133 °F, pH 6.2
  Half Life, t1/2: 27.9 h
[1]; Test 4, 133 °F, pH 5.5
  Half Life, t1/2: 30.4 h
[1]; Test 5, 113 °F, pH 5.5
  Half Life, t1/2: 114.0 h
[1]; Test 6, 117 °F, pH 6.2
  Half Life, t1/2: 95.8 h
[1]; Test 7, 114 °F, pH 7.0
  Half Life, t1/2: 130.1 h

## O=C(O)CBr [Bromoacetic acid]
[1]; Test 16, 167 °F, pH 5.5
  Half Life, t1/2: 17.3 h
[1]; Test 17, 166 °F, pH 7.0
  Half Life, t1/2: 12.5 h
[1]; Test 18, 143 °F, pH 7.0
  Half Life, t1/2: 171.4 h
[1]; Test 19, 156 °F, pH 6.2
  Half Life, t1/2: 32.6 h
[1]; Test 20, 140 °F, pH 6.2
  Half Life, t1/2: 136.9 h
[1]; Test 21, 124 °F, pH 6.2
  Half Life, t1/2: 319.2 h

## CC(Cl)C(=O)O (stereo not drawn) [2-Chloropropionic acid]
[1]; Test 25, 130 °F, pH 6.2
  Half Life, t1/2: 73.1 h
[1]; Test 26, 114 °F, pH 6.2
  Half Life, t1/2: 598.5 h

## O=C(O)C(Cl)Cl [Dichloroacetic acid]
[1]; Test 10, 197 °F, pH 7.0
  Half Life, t1/2: 111.8 h
[1]; Test 11, 221 °F, pH 7.0
  Half Life, t1/2: 23.0 h
